From patent publication US20260234160A1, “NEW SUBSTITUTED QUINOLINE COMPOUNDS FOR COMBATITNG PHYTOPATHOGENIC FUNGI” (BASF SE, priority 2023, published 2026)

Assays:
Botrytis cinerea = experiment: Activity against the grey mold Botrytis cinerea in the microtiterplate test; format: cell-based; settings: 31 ppm, MTP, 405 nm, 7 days after inoculation
Method: The active compounds were formulated separately as a stock solution having a concentration of 10000 ppm in dimethyl sulfoxide.
The stock solutions were mixed according to the ratio, pipetted onto a micro titer plate (MTP) and diluted with water to the stated concentrations. A spore suspension of Botrytis cinerea in an aqueous biomalt or yeast-bactopeptone-sodium acetate solution was then added. The plates were placed in a water vapor-saturated chamber at a temperature of 18° C. Using an absorption photometer, the MTPs were measured at 405 nm 7 days after the inoculation.

Corynespora cassiicola = experiment: Activity against Corynespora cassiicola in the microtiterplate test; format: cell-based; settings: 31 ppm, MTP
Method: The active compounds were formulated separately as a stock solution having a concentration of 10000 ppm in dimethyl sulfoxide. The stock solutions were mixed according to the ratio, pipetted onto a micro titer plate (MTP) and diluted with water to the stated concentrations. A spore suspension of the Corynespora cassiicola in an aqueous biomalt or yeast-bactopeptone-sodium acetate solution was then added.

Sclerotinia sclerotiorum = experiment: Preventative fungicidal control of white mold on oilseed rape caused by Sclerotinia sclerotiorum (green house); format: in vivo; settings: 100 ppm, assessed after 14 days, untreated 100%
Method: The compound was dissolved in a mixture of acetone and/or dimethylsulfoxide and the wetting agent/emulsifier Wettol, which is based on ethoxylated alkylphenoles, in a ratio (volume) solvent-emulsifier of 99 to 1 to give a total volume of 5 ml. Subsequently, water was added to total volume of 100 ml.
This stock solution was then diluted with the described solvent-emulsifier-water mixture to the final concentration given in the table below.
Oilseed rapes were grown in pots to the 13 to 14 leaf stage. These plants were sprayed to runoff with previously described spray solution, containing the concentration of active ingredient or their mixture mentioned in the table below.
The plants could air-dry. The next day the applicated rape petals were fixed with 25 μl of 2.5% methylcellulose on leaf 1 and 2. 25 μl of a spore suspension of Sclerotinia sclerotiorum was pipetted on each fixed rape petal. After 14 days at 20° C. and a relative humidity of 60% the extent of fungal attack on the leaves was visually assessed as % diseased leaf area.

In the case of C[C@@H]1N=C(c2cnc3ccccc3c2)c2cccc(F)c2OC1(C)C [Ex-4, (3S)-9-fluoro-2,2,3-trimethyl-5-(3-quinolyl)-3H-1,4-benzoxazepine], the “growth of the pathogen” value (Botrytis cinerea) is reported as 0% and the “growth of the pathogen” value (Corynespora cassiicola) is reported as 1%.

For C[C@@H]1N=C(c2cnc3c(F)cccc3c2)c2cccc(F)c2OC1(C)C [Ex-3, (3S)-9-fluoro-5-(8-fluoro-3-quinolyl)-2,2,3-trimethyl-3H-1,4-benzoxazepine], the “growth of the pathogen” value (Botrytis cinerea) was 0%.

For C[C@@H]1N=C(c2cnc3c(F)cccc3c2)c2ccccc2OC1(C)C [Ex-1, (S)-5-(8-fluoroquinolin-3-yl)-2,2,3-trimethyl-2,3-dihydrobenzo[f][1,4]oxazepane], the “growth of the pathogen” value (Botrytis cinerea) was 0% and the “growth of the pathogen (% diseased leaf area)” value (Sclerotinia sclerotiorum) was “less than 1%”.
